The source of these data is patent publication US20250082774A1, “PEPTIDE LINKERS COMPRISING TWO OR MORE PAYLOADS” (ARARIS BIOTECH AG, priority 2022, published 2025).

Entries after “also recorded” stand apart in the source; their conditions may differ.

The subject of one assay is various tumor cell lines. The settings on record: cited from earlier work.
Assay [1] concerns SUM190PT (Nectin-4-positive, solid tumor) xenograft. The assay can be described thus: Tumor growth inhibition in SUM190PT xenograft model. The format is in vivo, CB17 SCID mice. The conditions noted are these: single i.v. injection. The protocol: For SUM190PT xenografts, 2×10^6 cells were injected into the mammary fat pad of CB17 SCID mice (Janvier). Tumor dimensions and body weights were recorded three times weekly. The tumor volume was calculated according to the formula volume=(width)^2×length×0.5. When the average tumor size reached about 200 mm^3, mice were allocated using a non-random stratification protocol into the treatment groups comprising six mice each. ADCs were intravenously injected once on the day of randomization. The ADCs according to this invention were produced in-house as described in Example 2. Enfortumab vedotin (DAR 4) was commercially available, bought from a pharmacy. ARA-04-MMAE-PABC-AA-C2-RKAA-PABC-MMAE (DAR 4.0) and ARA-04-RKAA-PABC-(MMAE)2 (DAR 3.8) were injected at ADC doses corresponding to 10 μg payload dose per kg mouse weight (10 μg/kg). Enfortumab vedotin (DAR 4) was injected 15 μg payload dose per kg mouse weight (15 μg/kg). Mice in the control group were injected with PBS. All mouse experiments were performed in accordance with Swiss guidelines and were approved by the Veterinarian Office of Zurich, Switzerland.

For the next assay, the target named is RNA-polymerase II (Homo sapiens, UniProt P24928). The conditions noted are these: read-out: KD of the complex between amanitin and RNA-polymerase II; cited from earlier work.
Where [2] appears, read: 10 μg/kg payload dose, six mice per group.

With `CC[C@H](C)[C@H](NC(=O)[C@H]1CCCCN1C)C(=O)N(COC(=O)CC(C)C)[C@H](C[C@@H](OC(C)=O)c1nc(C(=O)N[C@@H](Cc2ccc(O)cc2)C[C@H](C)C(=O)O)cs1)C(C)C` [Tubulysin A], the “IC50, cytostatic effects” value in the assay with various tumor cell lines is listed as “picomolar range”.
Consider “ARA-04-MMAE-PABC-AA-C2-RKAA-PABC-MMAE: anti-Nectin-4 ADC (DAR 4.0), same antibody and payload as Enfortumab vedotin, payloads at N- and C-terminal end of peptide linker”, for which, in assay [1] (setting [2]), the “anti-tumor response (in words)” value was “active in vivo; also recorded: superior efficacy providing survival advantage” and the “mice with complete long-lasting responses” value is on record as 4/6.
As to “ARA-04-RKAA-PABC-(MMAE)2: anti-Nectin-4 ADC (DAR 3.8), same antibody and payload as Enfortumab vedotin, payloads only at C-terminal end of peptide linker”, the “anti-tumor response (in words)” value in assay [1] (setting [2]) was “tumor control for approximately 20 days in 6/6 mice followed by re-growth of tumors; also recorded: active in vivo”.
As to Enfortumab vedotin [reference compound], the “animals with marked regrowth after day 40” value in assay [1] (15 μg/kg payload dose) is 6/6. The “anti-tumor response (in words)” value in assay [1] (15 μg/kg payload dose, six mice per group) was “transient tumor regression with no tumor-free individuals at 20 days after treatment”.
For orientation: Kd means the concentration at which binding is half-saturated. For the compound amanitin, the Kd on RNA-polymerase II is 3 nM.
